Data set [1] deals with T1, UDP-glucuronosyltransferase 1A7 (Homo sapiens, UniProt Q9HAW7).
T1 sequence (Q9HAW7 whole entry): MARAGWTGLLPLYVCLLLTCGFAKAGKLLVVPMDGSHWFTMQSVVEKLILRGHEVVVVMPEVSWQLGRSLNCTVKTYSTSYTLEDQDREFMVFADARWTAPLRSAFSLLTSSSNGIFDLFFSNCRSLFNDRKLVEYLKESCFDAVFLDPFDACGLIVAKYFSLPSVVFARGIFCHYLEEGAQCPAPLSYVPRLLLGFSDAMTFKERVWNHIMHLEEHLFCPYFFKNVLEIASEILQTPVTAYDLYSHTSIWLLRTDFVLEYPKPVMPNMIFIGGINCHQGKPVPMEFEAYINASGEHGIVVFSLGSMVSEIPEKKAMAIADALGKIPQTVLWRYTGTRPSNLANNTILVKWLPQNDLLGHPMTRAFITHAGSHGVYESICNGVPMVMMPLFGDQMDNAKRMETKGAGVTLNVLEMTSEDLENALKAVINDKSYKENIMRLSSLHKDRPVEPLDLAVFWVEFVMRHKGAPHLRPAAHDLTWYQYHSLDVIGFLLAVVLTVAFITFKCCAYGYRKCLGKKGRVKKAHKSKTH
As to the kind of experiment: Drug metabolism assessed as recombinant human UGT1A7 assessed as O-glucuronidation at 100 uM incubated for 60 mins by LC-MS/MS analysis. Particulars: recombinant enzyme, 1 h. In kind it is ADME.

The target of data set [2] is T2, UDP-glucuronosyltransferase 2B15 (Homo sapiens, UniProt P54855).
T2 sequence (P54855 whole entry): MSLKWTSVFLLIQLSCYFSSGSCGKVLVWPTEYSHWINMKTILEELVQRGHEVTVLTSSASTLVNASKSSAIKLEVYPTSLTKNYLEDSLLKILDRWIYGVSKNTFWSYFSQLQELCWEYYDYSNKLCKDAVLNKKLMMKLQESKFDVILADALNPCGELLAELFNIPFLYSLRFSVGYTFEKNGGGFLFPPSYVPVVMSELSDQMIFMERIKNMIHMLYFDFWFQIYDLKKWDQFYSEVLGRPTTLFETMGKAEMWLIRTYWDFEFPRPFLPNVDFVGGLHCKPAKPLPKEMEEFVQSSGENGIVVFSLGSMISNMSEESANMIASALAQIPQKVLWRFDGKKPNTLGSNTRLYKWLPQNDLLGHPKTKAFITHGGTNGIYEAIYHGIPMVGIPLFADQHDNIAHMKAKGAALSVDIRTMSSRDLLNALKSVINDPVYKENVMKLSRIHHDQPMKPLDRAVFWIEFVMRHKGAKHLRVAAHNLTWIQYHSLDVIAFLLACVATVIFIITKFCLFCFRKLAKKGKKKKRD
As to the kind of experiment: Drug metabolism assessed as recombinant human UGT2B15 assessed as O-glucuronidation at 100 uM incubated for 60 mins by LC-MS/MS analysis. The following applies: recombinant enzyme, 1 h. In kind it is ADME.

The target in data set [3] is T3, UDP-glucuronosyltransferase 1A3 (Homo sapiens, UniProt P35503).
T3 sequence (P35503 whole entry): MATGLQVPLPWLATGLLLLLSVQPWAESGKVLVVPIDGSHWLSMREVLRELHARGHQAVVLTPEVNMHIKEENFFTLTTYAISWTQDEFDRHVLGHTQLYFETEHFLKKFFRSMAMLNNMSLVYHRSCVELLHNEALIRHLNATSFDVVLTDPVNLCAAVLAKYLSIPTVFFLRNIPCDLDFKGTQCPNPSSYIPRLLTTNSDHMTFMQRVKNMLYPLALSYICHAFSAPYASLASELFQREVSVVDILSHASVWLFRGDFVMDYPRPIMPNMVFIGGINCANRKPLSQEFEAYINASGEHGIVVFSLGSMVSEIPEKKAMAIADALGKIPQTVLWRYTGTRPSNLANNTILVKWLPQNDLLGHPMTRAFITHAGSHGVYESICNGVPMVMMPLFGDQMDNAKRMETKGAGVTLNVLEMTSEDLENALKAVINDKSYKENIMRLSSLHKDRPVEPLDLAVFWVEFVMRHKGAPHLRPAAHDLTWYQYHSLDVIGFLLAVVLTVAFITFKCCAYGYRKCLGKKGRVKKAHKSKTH
The data set can be described thus: Drug metabolism assessed as recombinant human UGT1A3 assessed as N-glucuronidation at 100 uM incubated for 60 mins by LC-MS/MS analysis. In kind it is ADME. Particulars: recombinant enzyme, 1 h.

Data set [4] concerns the target T4, UDP-glucuronosyltransferase 1A8 (Homo sapiens, UniProt Q9HAW9).
T4 sequence (Q9HAW9 whole entry): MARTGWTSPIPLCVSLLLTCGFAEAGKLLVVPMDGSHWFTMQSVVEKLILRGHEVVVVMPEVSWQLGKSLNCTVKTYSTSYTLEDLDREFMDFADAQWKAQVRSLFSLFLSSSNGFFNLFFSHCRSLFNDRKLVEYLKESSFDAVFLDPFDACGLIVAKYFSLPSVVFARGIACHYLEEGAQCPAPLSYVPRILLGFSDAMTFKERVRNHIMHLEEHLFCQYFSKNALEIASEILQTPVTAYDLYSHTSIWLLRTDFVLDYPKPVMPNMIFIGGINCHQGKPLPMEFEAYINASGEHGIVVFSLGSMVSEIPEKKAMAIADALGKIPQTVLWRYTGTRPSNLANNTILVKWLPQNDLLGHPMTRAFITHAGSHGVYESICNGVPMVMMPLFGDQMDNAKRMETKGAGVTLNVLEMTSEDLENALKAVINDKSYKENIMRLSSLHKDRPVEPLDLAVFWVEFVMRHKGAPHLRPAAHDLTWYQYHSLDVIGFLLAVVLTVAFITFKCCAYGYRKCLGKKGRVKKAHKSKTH
The data set can be described thus: Drug metabolism assessed as recombinant human UGT1A8 assessed as N-glucuronidation at 100 uM incubated for 60 mins by LC-MS/MS analysis. The following applies: recombinant enzyme, 1 h. It counts as ADME.

The target in a further data set is T5, UGT2B7 (Homo sapiens, UniProt P16662).
T5 sequence (P16662 whole entry): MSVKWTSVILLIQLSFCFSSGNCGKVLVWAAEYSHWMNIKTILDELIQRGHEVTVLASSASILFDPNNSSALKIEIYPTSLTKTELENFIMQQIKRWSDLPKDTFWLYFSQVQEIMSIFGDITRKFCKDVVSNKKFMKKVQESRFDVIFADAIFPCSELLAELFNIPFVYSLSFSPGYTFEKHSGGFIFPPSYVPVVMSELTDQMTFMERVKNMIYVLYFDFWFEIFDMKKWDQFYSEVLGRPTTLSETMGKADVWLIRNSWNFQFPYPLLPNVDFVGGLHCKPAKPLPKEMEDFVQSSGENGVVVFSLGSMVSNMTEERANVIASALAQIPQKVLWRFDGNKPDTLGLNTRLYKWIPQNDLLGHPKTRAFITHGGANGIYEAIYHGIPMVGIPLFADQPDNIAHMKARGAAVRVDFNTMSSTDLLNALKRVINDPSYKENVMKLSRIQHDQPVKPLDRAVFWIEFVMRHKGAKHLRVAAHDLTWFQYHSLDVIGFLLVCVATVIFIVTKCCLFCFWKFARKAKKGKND
The data set can be described thus: Drug metabolism assessed as recombinant human UGT2B7 assessed as O-glucuronidation at 10 to 400 uM incubated for 60 mins by LC-MS/MS analysis.

The structures appear in SMILES notation.

For one compound, Drug metabolism and Km results are on record in ChEMBL document CHEMBL3526000 (Drug Metab Dispos, 2012).

As a reminder, the Km is the concentration of substrate that gives half-maximal velocity.

As to `O=C(CCCN1CCC(O)(c2ccc(Cl)cc2)CC1)c1ccc(F)cc1` [HALOPERIDOL], the Drug metabolism entry in data set [1], in data set [2], in data set [3] and in data set [4] was “metabolite_not_detected” in each case. Besides, on UGT2B7, the Km at 1 h, 400 µM worked out at 45 µM.
